Assay results taken from US12077503B2, “Substituted cyclic amides and their use as herbicides” (FMC CORPORATION, priority 2015, dated 2024).

Tests used:
Format in all cases: in vivo
[1] = tested on: ragweed (common ragweed, Ambrosia elatior); test: Test A postemergence; conditions: postemergence; for Ragweed plant response rating: 125 g ai/ha, visual injury rating on 0 to 100 scale (0 no effect, 100 complete control), approx. 10 d; for Plant response rating, Ragweed: 500 g ai/ha, 0 to 100 scale, 0 no effect, 100 complete control
Method in brief: (§1)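 Seeded soil received test chemicals as a preemergence directed spray, and seedlings at one to two leaves, 2–10 cm tall, received them postemergence, in a non-phytotoxic, surfactant-containing solvent mixture. Pots were held in a greenhouse for approximately 10 d, then rated for injury from 0, no effect, to 100, complete control.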

[2] = tested on: wheat (Triticum aestivum); test: Test A postemergence; conditions: postemergence; for Wheat plant response rating: 125 g ai/ha, visual injury rating on 0 to 100 scale (0 no effect, 100 complete control), approx. 10 d; for Plant response rating, Wheat: 500 g ai/ha, 0 to 100 scale, 0 no effect, 100 complete control
Method in brief: as §1

[3] = tested on: barnyardgrass (Echinochloa crus-galli); test: Test A postemergence; conditions: postemergence; for Barnyardgrass plant response rating: 125 g ai/ha, visual injury rating on 0 to 100 scale (0 no effect, 100 complete control), approx. 10 d; for Plant response rating, Barnyardgrass: 500 g ai/ha, 0 to 100 scale, 0 no effect, 100 complete control
Method in brief: as §1

[4] = tested on: blackgrass (Alopecurus myosuroides); test: Test A postemergence; conditions: postemergence; for Blackgrass plant response rating: 125 g ai/ha, visual injury rating on 0 to 100 scale (0 no effect, 100 complete control), approx. 10 d; for Plant response rating, Blackgrass: 500 g ai/ha, 0 to 100 scale, 0 no effect, 100 complete control
Method in brief: as §1

[5] = tested on: Galium (catchweed bedstraw, Galium aparine); test: Test A postemergence; conditions: postemergence; for Galium plant response rating: 125 g ai/ha, visual injury rating on 0 to 100 scale (0 no effect, 100 complete control), approx. 10 d; for Plant response rating, Galium: 500 g ai/ha, 0 to 100 scale, 0 no effect, 100 complete control
Method in brief: as §1

[6] = tested on: pigweed (Amaranthus retroflexus); test: Test A postemergence; conditions: postemergence; for Pigweed plant response rating: 125 g ai/ha, visual injury rating on 0 to 100 scale (0 no effect, 100 complete control), approx. 10 d; for Plant response rating, Pigweed: 500 g ai/ha, 0 to 100 scale, 0 no effect, 100 complete control
Method in brief: as §1

[7] = tested on: corn (Zea mays); test: Test A postemergence; conditions: postemergence; for Corn plant response rating: 125 g ai/ha, visual injury rating on 0 to 100 scale (0 no effect, 100 complete control), approx. 10 d; for Plant response rating, Corn: 500 g ai/ha, 0 to 100 scale, 0 no effect, 100 complete control
Method in brief: as §1

[8] = tested on: giant foxtail (Setaria faberii); test: Test A postemergence; conditions: postemergence; for Foxtail, Giant plant response rating: 125 g ai/ha, visual injury rating on 0 to 100 scale (0 no effect, 100 complete control), approx. 10 d; for Plant response rating, Foxtail, Giant: 500 g ai/ha, 0 to 100 scale, 0 no effect, 100 complete control
Method in brief: as §1

[9] = tested on: Kochia (Kochia scoparia); test: Test A postemergence; conditions: postemergence; for Kochia plant response rating: 125 g ai/ha, visual injury rating on 0 to 100 scale (0 no effect, 100 complete control), approx. 10 d; for Plant response rating, Kochia: 500 g ai/ha, 0 to 100 scale, 0 no effect, 100 complete control
Method in brief: as §1

[10] = tested on: ryegrass, Italian (Italian ryegrass, Lolium multiflorum); test: Test A postemergence; conditions: postemergence; for Ryegrass, Italian plant response rating: 125 g ai/ha, visual injury rating on 0 to 100 scale (0 no effect, 100 complete control), approx. 10 d; for Plant response rating, Ryegrass, Italian: 500 g ai/ha, 0 to 100 scale, 0 no effect, 100 complete control
Method in brief: as §1

[11] = tested on: ducksalad (Heteranthera limosa); test: Test B flooded paddy test; conditions: Flood, 0 to 100 scale where 0 is no effect and 100 is complete control, 13 to 15 d
Method in brief: (§2)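 2-leaf plants; pots flooded 3 cm over soil; cpd added to paddy water; depth held; greenhouse 13–15 d; visual rating vs controls, 0 = no effect, 100 = complete control.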

[12] = tested on: sedge, umbrella (small-flower umbrella sedge, Cyperus difformis); test: Test B flooded paddy test; conditions: Flood, 0 to 100 scale where 0 is no effect and 100 is complete control, 13 to 15 d
Method in brief: as §2

[13] = tested on: barnyardgrass (Echinochloa crus-galli); test: Test B flooded paddy test; conditions: Flood, 0 to 100 scale where 0 is no effect and 100 is complete control, 13 to 15 d
Method in brief: as §2

[14] = tested on: rice (Oryra sativa); test: Test B flooded paddy test; conditions: Flood, 0 to 100 scale where 0 is no effect and 100 is complete control, 13 to 15 d
Method in brief: as §2

[15] = tested on: ragweed (common ragweed, Ambrosia elatior); test: Test A preemergence; conditions: for Plant response rating, Ragweed: 125 g ai/ha, preemergence, 0 to 100 scale (0 no effect, 100 complete control); for Ragweed plant response rating (0 to 100 scale, 0 is no effect, 100 is complete control): Preemergence, 500 g ai/ha, visual injury approx. 10 d
Method in brief: as §1

[16] = tested on: barnyardgrass (Echinochloa crus-galli); test: Test A preemergence; conditions: for Plant response rating, Barnyardgrass: 125 g ai/ha, preemergence, 0 to 100 scale (0 no effect, 100 complete control); for Barnyardgrass plant response rating (0 to 100 scale, 0 is no effect, 100 is complete control): Preemergence, 500 g ai/ha, visual injury approx. 10 d
Method in brief: as §1

[17] = tested on: pigweed (Amaranthus retroflexus); test: Test A preemergence; conditions: for Plant response rating, Pigweed: 125 g ai/ha, preemergence, 0 to 100 scale (0 no effect, 100 complete control); for Pigweed plant response rating (0 to 100 scale, 0 is no effect, 100 is complete control): Preemergence, 500 g ai/ha, visual injury approx. 10 d
[18] = tested on: giant foxtail (Setaria faberii); test: Test A preemergence; conditions: for Plant response rating, Foxtail, Giant: 125 g ai/ha, preemergence, 0 to 100 scale (0 no effect, 100 complete control); for Foxtail, Giant plant response rating (0 to 100 scale, 0 is no effect, 100 is complete control): Preemergence, 500 g ai/ha, visual injury approx. 10 d
Method in brief: as §1

[19] = tested on: Kochia (Kochia scoparia); test: Test A preemergence; conditions: for Plant response rating, Kochia: 125 g ai/ha, preemergence, 0 to 100 scale (0 no effect, 100 complete control); for Kochia plant response rating (0 to 100 scale, 0 is no effect, 100 is complete control): Preemergence, 500 g ai/ha, visual injury approx. 10 d
Method in brief: as §1

[20] = tested on: ryegrass, Italian (Italian ryegrass, Lolium multiflorum); test: Test A preemergence; conditions: for Plant response rating, Ryegrass, Italian: 125 g ai/ha, preemergence, 0 to 100 scale (0 no effect, 100 complete control); for Ryegrass, Italian plant response rating (0 to 100 scale, 0 is no effect, 100 is complete control): Preemergence, 500 g ai/ha, visual injury approx. 10 d
Method in brief: as §1

SMILES: Cc1cc(C2CN(C)C(=O)C2C(=O)Nc2ccccc2S(C)(=O)=O)ccc1F (stereo not drawn) [Compound 405]
- Ragweed plant response rating [1]: 0
- Plant response rating, Ragweed [1]: 50
- Wheat plant response rating [2]: 60
- Plant response rating, Wheat [2]: 80
- Barnyardgrass plant response rating [3]: 90
- Plant response rating, Barnyardgrass [3]: 90
- Blackgrass plant response rating [4]: 50
- Plant response rating, Blackgrass [4]: 60
- Galium plant response rating [5]: 60
- Plant response rating, Galium [5]: 60
- Pigweed plant response rating [6]: 40
- Plant response rating, Pigweed [6]: 50
- Corn plant response rating [7]: 30
- Plant response rating, Corn [7]: 80
- Foxtail, Giant plant response rating [8]: 80
- Plant response rating, Foxtail, Giant [8]: 80
- Kochia plant response rating [9]: 40
- Plant response rating, Kochia [9]: 50
- Ryegrass, Italian plant response rating [10]: 30
- Plant response rating, Ryegrass, Italian [10]: 60
- Plant response rating, Ducksalad ([11]; 250 g ai/ha): 85
- Plant response rating, Sedge, Umbrella ([12]; 250 g ai/ha): 0
- Plant response rating, Barnyardgrass ([13]; 250 g ai/ha): 70
- Plant response rating, Rice ([14]; 250 g ai/ha): 0
- Plant response rating, Ragweed [15]: 20
- Ragweed plant response rating (0 to 100 scale, 0 is no effect, 100 is complete control) [15]: 70
- Plant response rating, Barnyardgrass [16]: 90
- Barnyardgrass plant response rating (0 to 100 scale, 0 is no effect, 100 is complete control) [16]: 90
- Plant response rating, Pigweed [17]: 50
- Pigweed plant response rating (0 to 100 scale, 0 is no effect, 100 is complete control) [17]: 60
- Plant response rating, Foxtail, Giant [18]: 90
- Foxtail, Giant plant response rating (0 to 100 scale, 0 is no effect, 100 is complete control) [18]: 90
- Plant response rating, Kochia [19]: 50
- Kochia plant response rating (0 to 100 scale, 0 is no effect, 100 is complete control) [19]: 70
- Plant response rating, Ryegrass, Italian [20]: 0
- Ryegrass, Italian plant response rating (0 to 100 scale, 0 is no effect, 100 is complete control) [20]: 30

SMILES: O=C1NCC(c2cccc(OCC(F)F)c2)C1C(=O)Nc1ccc(F)c(F)c1F (stereo not drawn) [Compound 407]
- Ragweed plant response rating [1]: 0
- Plant response rating, Ragweed [1]: 0
- Wheat plant response rating [2]: 0
- Plant response rating, Wheat [2]: 0
- Barnyardgrass plant response rating [3]: 60
- Plant response rating, Barnyardgrass [3]: 70
- Blackgrass plant response rating [4]: 30
- Plant response rating, Blackgrass [4]: 50
- Galium plant response rating [5]: 0
- Plant response rating, Galium [5]: 0
- Pigweed plant response rating [6]: 0
- Plant response rating, Pigweed [6]: 0
- Corn plant response rating [7]: 0
- Plant response rating, Corn [7]: 40
- Foxtail, Giant plant response rating [8]: 70
- Plant response rating, Foxtail, Giant [8]: 70
- Kochia plant response rating [9]: 0
- Plant response rating, Kochia [9]: 40
- Ryegrass, Italian plant response rating [10]: 0
- Plant response rating, Ryegrass, Italian [10]: 0
- Plant response rating, Ducksalad ([11]; 500 g ai/ha): 100
- Plant response rating, Sedge, Umbrella ([12]; 500 g ai/ha): 0
- Plant response rating, Barnyardgrass ([13]; 500 g ai/ha): 60
- Plant response rating, Rice ([14]; 500 g ai/ha): 10
- Plant response rating, Ragweed [15]: 0
- Ragweed plant response rating (0 to 100 scale, 0 is no effect, 100 is complete control) [15]: 0
- Plant response rating, Barnyardgrass [16]: 70
- Barnyardgrass plant response rating (0 to 100 scale, 0 is no effect, 100 is complete control) [16]: 80
- Plant response rating, Pigweed [17]: 0
- Pigweed plant response rating (0 to 100 scale, 0 is no effect, 100 is complete control) [17]: 20
- Plant response rating, Foxtail, Giant [18]: 80
- Foxtail, Giant plant response rating (0 to 100 scale, 0 is no effect, 100 is complete control) [18]: 90
- Plant response rating, Kochia [19]: 0
- Kochia plant response rating (0 to 100 scale, 0 is no effect, 100 is complete control) [19]: 0
- Plant response rating, Ryegrass, Italian [20]: 0
- Ryegrass, Italian plant response rating (0 to 100 scale, 0 is no effect, 100 is complete control) [20]: 0
